According to patent US4464385A, “Treatment of diabetic complications with hydantoins” (Alcon Laboratories, Inc., priority 1982, dated 1984):
“Also recorded” adds a separate entry of the source.

Columns and labels:
[1] = system: aldose reductase; test: Aldose reductase inhibition / potency (general statement)
[2] = system: cataracts in rats; test: Prevention or retardation of cataracts in galactose-fed rats; assay type: in vivo, rat; conditions: for suppression of the formation of nuclear cataracts: 30 days; for % of Total Eyes, + (vacuole) / % of Total Eyes, - (Normal) / % of Total Eyes, N (nuclear cataract) / % of Total Eyes, S (snowflake) / Number of Eyes Observed, + (vacuole) / Number of Eyes Observed, - (Normal) / Number of Eyes Observed, N (nuclear cataract) / Number of Eyes Observed, S (snowflake) / Number of Eyes Observed, ±: 30% galactose diet, A,C,E 0.0025%, B,D 0.01%
How it was run: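 Rats given test compound mixed into diet (by % of total feed weight; 0.01% designed to supply 20 mg/kg/day) ad libitum for thirty days after a two-day chow acclimatization, twelve animals per treatment. Eyes examined by handheld ophthalmoscope and/or penlight and each eye graded.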

Question: “dl-spiro-(6-methylthio-chroman-4,4'-imidazolidine)-2',5'-dione” was tested. Which “potency relative to the resolved 6-fluoro compound” value [1] did it give?
Answer: potency similar to the resolved 6-fluoro compound

Question: And the “suppression of the formation of nuclear cataracts” value ([2]; 0.0025% in diet)?
Answer: greater than 80%

Question: What about the “time of suppression, time to vacuole formation” value ([2]; 0.01% in diet) of the same substance?
Answer: 13.5 days

Question: And the “time to snowflake / retardation of cataract, versus Sarges 0.0025% d-6-fluoro” value ([2]; 0.01% in diet)?
Answer: not significantly different from the Sarges 0.0025% d-6-fluoro control; also recorded: retard the progress of cataract formation slightly better than the Sarges control; also recorded: surpassed the positive control

Question: What about the “time to vacuole formation, versus Sarges 0.0025% d-6-fluoro” value ([2]; 0.01% in diet) of the same substance?
Answer: statistically lower (p<0.05) than the Sarges standard

Question: And the “suppression of the formation of nuclear cataracts” value ([2]; 0.01% in diet)?
Answer: 100%

Question: And the “% of Total Eyes, + (vacuole)” value ([2]; Study Day 2)?
Answer: 0%

Question: What about the “% of Total Eyes, - (Normal)” value ([2]; Study Day 2) of the same substance?
Answer: 100.0%

Question: What about the “% of Total Eyes, N (nuclear cataract)” value ([2]; Study Day 2) of the same substance?
Answer: 0%

Question: What about the “% of Total Eyes, S (snowflake)” value ([2]; Study Day 2) of the same substance?
Answer: 0%

Question: What about the “Number of Eyes Observed, + (vacuole)” value ([2]; Study Day 2) of the same substance?
Answer: 0 eyes

Question: And the “Number of Eyes Observed, - (Normal)” value ([2]; Study Day 2)?
Answer: 24 eyes

Question: And the “Number of Eyes Observed, N (nuclear cataract)” value (“Number of Eyes Observed, N” below) ([2]; Study Day 2)?
Answer: 0 eyes

Question: And the “Number of Eyes Observed, S (snowflake)” value ([2]; Study Day 2)?
Answer: 0 eyes

Question: And the “Number of Eyes Observed, ±” value ([2]; Study Day 2)?
Answer: 0 eyes

Question: What about the “% of Total Eyes, + (vacuole)” value ([2]; Study Day 3) of the same substance?
Answer: 0%

Question: And the “% of Total Eyes, - (Normal)” value ([2]; Study Day 3)?
Answer: 100.0%

Question: And the “% of Total Eyes, N (nuclear cataract)” value ([2]; Study Day 3)?
Answer: 0%

Question: What about the “% of Total Eyes, S (snowflake)” value ([2]; Study Day 3) of the same substance?
Answer: 0%

Question: What about the “Number of Eyes Observed, + (vacuole)” value ([2]; Study Day 3) of the same substance?
Answer: 0 eyes

Question: What about the “Number of Eyes Observed, - (Normal)” value ([2]; Study Day 3) of the same substance?
Answer: 24 eyes

Question: What about the “Number of Eyes Observed, N” value ([2]; Study Day 3) of the same substance?
Answer: 0 eyes

Question: What about the “Number of Eyes Observed, S (snowflake)” value ([2]; Study Day 3) of the same substance?
Answer: 0 eyes

Question: What about the “Number of Eyes Observed, ±” value ([2]; Study Day 3) of the same substance?
Answer: 0 eyes

Question: What about the “% of Total Eyes, + (vacuole)” value ([2]; Study Day 4) of the same substance?
Answer: 0%

Question: And the “% of Total Eyes, - (Normal)” value ([2]; Study Day 4)?
Answer: 16.7%

Question: What about the “% of Total Eyes, N (nuclear cataract)” value ([2]; Study Day 4) of the same substance?
Answer: 0%

Question: What about the “% of Total Eyes, S (snowflake)” value ([2]; Study Day 4) of the same substance?
Answer: 0%

Question: What about the “Number of Eyes Observed, + (vacuole)” value ([2]; Study Day 4) of the same substance?
Answer: 0 eyes

Question: What about the “Number of Eyes Observed, - (Normal)” value ([2]; Study Day 4) of the same substance?
Answer: 4 eyes

Question: And the “Number of Eyes Observed, N” value ([2]; Study Day 4)?
Answer: 0 eyes

Question: And the “Number of Eyes Observed, S (snowflake)” value ([2]; Study Day 4)?
Answer: 0 eyes

Question: What about the “Number of Eyes Observed, ±” value ([2]; Study Day 4) of the same substance?
Answer: 20 eyes

Question: And the “% of Total Eyes, + (vacuole)” value ([2]; Study Day 5)?
Answer: 75.0%

Question: What about the “% of Total Eyes, - (Normal)” value ([2]; Study Day 5) of the same substance?
Answer: 0%

Question: What about the “% of Total Eyes, N (nuclear cataract)” value ([2]; Study Day 5) of the same substance?
Answer: 0%

Question: What about the “% of Total Eyes, S (snowflake)” value ([2]; Study Day 5) of the same substance?
Answer: 0%

Question: And the “Number of Eyes Observed, + (vacuole)” value ([2]; Study Day 5)?
Answer: 18 eyes

Question: And the “Number of Eyes Observed, - (Normal)” value ([2]; Study Day 5)?
Answer: 0 eyes

Question: And the “Number of Eyes Observed, N” value ([2]; Study Day 5)?
Answer: 0 eyes

Question: What about the “Number of Eyes Observed, S (snowflake)” value ([2]; Study Day 5) of the same substance?
Answer: 0 eyes

Question: What about the “Number of Eyes Observed, ±” value ([2]; Study Day 5) of the same substance?
Answer: 6 eyes

Question: What about the “% of Total Eyes, + (vacuole)” value ([2]; Study Day 6) of the same substance?
Answer: 83.3%

Question: What about the “% of Total Eyes, - (Normal)” value ([2]; Study Day 6) of the same substance?
Answer: 0%

Question: And the “% of Total Eyes, N (nuclear cataract)” value ([2]; Study Day 6)?
Answer: 0%

Question: What about the “% of Total Eyes, S (snowflake)” value ([2]; Study Day 6) of the same substance?
Answer: 0%

Question: And the “Number of Eyes Observed, + (vacuole)” value ([2]; Study Day 6)?
Answer: 20 eyes

Question: And the “Number of Eyes Observed, - (Normal)” value ([2]; Study Day 6)?
Answer: 0 eyes

Question: What about the “Number of Eyes Observed, N” value ([2]; Study Day 6) of the same substance?
Answer: 0 eyes

Question: What about the “Number of Eyes Observed, S (snowflake)” value ([2]; Study Day 6) of the same substance?
Answer: 0 eyes

Question: What about the “Number of Eyes Observed, ±” value ([2]; Study Day 6) of the same substance?
Answer: 4 eyes

Question: What about the “% of Total Eyes, + (vacuole)” value ([2]; Study Day 8) of the same substance?
Answer: 100.0%

Question: And the “% of Total Eyes, - (Normal)” value ([2]; Study Day 8)?
Answer: 0%

Question: What about the “% of Total Eyes, N (nuclear cataract)” value ([2]; Study Day 8) of the same substance?
Answer: 0%

Question: What about the “% of Total Eyes, S (snowflake)” value ([2]; Study Day 8) of the same substance?
Answer: 0%

Question: And the “Number of Eyes Observed, + (vacuole)” value ([2]; Study Day 8)?
Answer: 24 eyes

Question: And the “Number of Eyes Observed, - (Normal)” value ([2]; Study Day 8)?
Answer: 0 eyes

Question: What about the “Number of Eyes Observed, N” value ([2]; Study Day 8) of the same substance?
Answer: 0 eyes

Question: And the “Number of Eyes Observed, S (snowflake)” value ([2]; Study Day 8)?
Answer: 0 eyes

Question: What about the “Number of Eyes Observed, ±” value ([2]; Study Day 8) of the same substance?
Answer: 0 eyes

Question: What about the “% of Total Eyes, + (vacuole)” value ([2]; Study Day 10) of the same substance?
Answer: 79.2%

Question: And the “% of Total Eyes, - (Normal)” value ([2]; Study Day 10)?
Answer: 0%

Question: And the “% of Total Eyes, N (nuclear cataract)” value ([2]; Study Day 10)?
Answer: 0%

Question: And the “% of Total Eyes, S (snowflake)” value ([2]; Study Day 10)?
Answer: 20.8%

Question: What about the “Number of Eyes Observed, + (vacuole)” value ([2]; Study Day 10) of the same substance?
Answer: 19 eyes

Question: What about the “Number of Eyes Observed, - (Normal)” value ([2]; Study Day 10) of the same substance?
Answer: 0 eyes

Question: What about the “Number of Eyes Observed, N” value ([2]; Study Day 10) of the same substance?
Answer: 0 eyes

Question: And the “Number of Eyes Observed, S (snowflake)” value ([2]; Study Day 10)?
Answer: 5 eyes

Question: What about the “Number of Eyes Observed, ±” value ([2]; Study Day 10) of the same substance?
Answer: 0 eyes

Question: And the “% of Total Eyes, + (vacuole)” value ([2]; Study Day 12)?
Answer: 58.4%

Question: And the “% of Total Eyes, - (Normal)” value ([2]; Study Day 12)?
Answer: 0%

Question: What about the “% of Total Eyes, N (nuclear cataract)” value ([2]; Study Day 12) of the same substance?
Answer: 0%

Question: And the “% of Total Eyes, S (snowflake)” value ([2]; Study Day 12)?
Answer: 41.6%

Question: And the “Number of Eyes Observed, + (vacuole)” value ([2]; Study Day 12)?
Answer: 14 eyes

Question: What about the “Number of Eyes Observed, - (Normal)” value ([2]; Study Day 12) of the same substance?
Answer: 0 eyes

Question: And the “Number of Eyes Observed, N” value ([2]; Study Day 12)?
Answer: 0 eyes

Question: And the “Number of Eyes Observed, S (snowflake)” value ([2]; Study Day 12)?
Answer: 10 eyes

Question: And the “Number of Eyes Observed, ±” value ([2]; Study Day 12)?
Answer: 0 eyes

Question: What about the “% of Total Eyes, + (vacuole)” value ([2]; Study Day 14) of the same substance?
Answer: 41.6%

Question: And the “% of Total Eyes, - (Normal)” value ([2]; Study Day 14)?
Answer: 0%
